The structures appear in SMILES notation. pKi: −log10 of the molar value.

Sequence of 5-hydroxytryptamine receptor 2A (P28223 whole entry): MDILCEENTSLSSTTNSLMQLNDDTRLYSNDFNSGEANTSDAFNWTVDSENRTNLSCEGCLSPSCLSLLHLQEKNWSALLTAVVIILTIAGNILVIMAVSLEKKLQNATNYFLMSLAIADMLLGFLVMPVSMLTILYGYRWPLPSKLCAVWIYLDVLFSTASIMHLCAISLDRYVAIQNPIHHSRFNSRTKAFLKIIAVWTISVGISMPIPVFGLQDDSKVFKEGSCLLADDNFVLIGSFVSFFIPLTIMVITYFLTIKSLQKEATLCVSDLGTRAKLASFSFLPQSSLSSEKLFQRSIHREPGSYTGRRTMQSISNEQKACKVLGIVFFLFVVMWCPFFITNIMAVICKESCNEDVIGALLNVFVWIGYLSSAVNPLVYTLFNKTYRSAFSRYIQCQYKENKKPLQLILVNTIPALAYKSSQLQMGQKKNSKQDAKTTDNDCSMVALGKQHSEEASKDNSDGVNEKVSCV

In this assay the target is 5-hydroxytryptamine receptor 2A (Homo sapiens, UniProt P28223). Description: Competition Binding Assay. The conditions noted are these: pH 7.4; 37 °C. On the procedure:
5-HT-2A receptor affinity was determined by a radioligand competition binding assay with GF-62 cells, a clonal cell line expressing high amounts of 5-HT-2A receptors.
`COc1c(OCCF)cccc1C(O)C1CCN(CCn2c(=S)[nH]c3ccccc3c2=O)CC1` (centres undefined) [3-[2-(4-{[3-(2-fluoroethoxy)-2-methoxyphenyl](hydroxy)methyl}piperidin-1-yl)ethyl]-2-sulfanylidene-1,2,3,4-tetrahydroquinazolin-4-one, 4c] gave a pKi of 6.45.

For the compound `COc1c(OCCF)cccc1/C(=N/OCCN(C)C)C1CCN(CCc2ccc(F)cc2)CC1` [(E)-[2-(dimethylamino)ethoxy]({[3-(2-fluoroethoxy)-2-methoxyphenyl]({1-[2-(4-fluorophenyl)ethyl]piperidin-4-yl})methylidene})amine, 8], the pKi was 7.24.

Turning to `COc1cccc(C(O)C2CCN(CCn3c(=S)[nH]c4ccccc4c3=O)CC2)c1OC` (centres undefined) [3-(2-{4-[(2,3-dimethoxyphenyl)(hydroxy)methyl]piperidin-1-yl}ethyl)-2-sulfanylidene-1,2,3,4-tetrahydroquinazolin-4-one, 4b], the negative logarithm of the Ki (pKi) is 6.41. Compared with the last compound, the pKi is 0.83 log units lower.

For the compound `COc1cccc(C(=O)C2CCN(CCn3c(=S)[nH]c4ccccc4c3=O)CC2)c1OC` [3-(2-{4-[(2,3-dimethoxyphenyl)carbonyl]piperidin-1-yl}ethyl)-2-sulfanylidene-1,2,3,4-tetrahydroquinazolin-4-one, 4a], the pKi is 6.39.

Broadly, the pKi is the Ki on a negative log10 scale, so that one unit is a factor of ten.

Source of the values: BindingDB's records for doi:10.1111/j.1747-0285.2010.01011.x (University of Mainz, 2010).
